Test results taken from patent EP0394112A2, “Use of dipyrido(4,3-b)(3,4-f) indoles for the preparation of medicaments for the treatment of AIDS” (INSTITUT NATIONAL DE LA SANTE ET DE LA RECHERCHE MEDICALE …, priority 1989, dated 1990).
Like-named read-outs stand apart in the source and are kept apart here.

How the values were obtained:
[1] = system: fibroblastes murins NIH - 3T3; details: 24 h treatment, NIH - 3T3 fibroblasts; read-out: concentrations affecting viabilité et morphologie des cellules de manière irréversible; cited from earlier work
[2] = system: virus HIV 1; assay: Infectivity test on PHA-stimulated peripheral lymphocytes (viral production followed by RT activity); assay type: cell-based; details: 12,5 ng/ml
Text: Les lymphocytes obtenus après stimulation à la PHA (Phytohémagglutinine) de cellules issues d'une cytaphérèse, ont été infectés par une dilution appropriée de virus HIV 1 afin d'obtenir un pic de production virale aux environs du quinzième jour après infection. Différentes doses du BD 40 ont été ajoutées au milieu de culture au moment de l'infection et pendant toute la culture afin de déterminer les doses toxiques et protectrices.
Pour déterminer le mécanisme d'action du composé, celui-ci a été ajouté à la culture soit pendant une période de préincubation des cellules avant infection, soit pendant toute la période de culture suivant l'infection.
Le suivi de la production virale des lymphocytes a été réalisé par dosage de l'activité de la transcriptase inverse dans la culture tous les 3 ou 4 jours.
Les résultats obtenus, avec le BD 40 à la concentration de 12,5 ng/ml, figurent sur les différentes courbes de la figure 2 qui expriment l'activité de la transcriptase inverse (RT en ordonnées) en fonction du temps en jours. • Fig. 2a : BD 40 ajouté pendant la période de préincubation des cellules avant infection. • Fig. 2b : BD 40 ajouté pendant la culture qui suit l'infection. • Fig. 2c : BD 40 ajouté à la culture, uniquement après l'infection. • Fig. 2d : Pas de BD 40. Contrôle HIV 1.

[3] = system: virus HIV 1; assay type: cell-based
Text: Les macrophages ont été isolés à partir du sang périphérique par adhérence. On les a infectés par du virus HIV 1 (de 5000 à 25000 cpm (RT en cpm par ml)). 3 à 7 jours après, les macrophages ont été éclatés par congélation/décongélation et le virus a été révélé par une coculture avec une lignée lymphoblastoïde (CEM ou lymphocytes du sang périphérique).
Différentes doses de trichlorhydrate de BD 40 (ci-après BD 40) ont été testées, le produit étant ajouté au milieu de culture au moment de l'infection.

[4] = system: lignée cellulaire murine D55; details: 24 h treatment, D55 cells; read-out: concentrations affecting viabilité et morphologie des cellules de manière irréversible; cited from earlier work
[5] = system: virus HIV; assay type: cell-based, virus HIV 1; details: for production virale des lymphocytes périphériques infectés: added at the time of infection, figure 3
Text: Ce test a été réalisé comme suit.
Les lymphocytes humains ont été isolés sur gradient de Ficoll à partir du sang périphérique d'un donneur séronégatif. Préalablement au traitement, ils ont été stimulés par la phytohémagglutinine p (PHA-p) (Difco) pendant 3 jours. Ils sont ensuite maintenus en culture dans un milieu RPMI sans glutamine (GIBCO, Réf. 041.01870M, contenant 10 % de sérum de veau fétal (FLOW, Réf. 29.101.711), 1 % de glutamine (GIBCO, Réf. 043.05030H), 1 % d'une solution d'antibiotiques (GIBCO, PSN, Réf. 043.05640H), 10 % d'une solution d'interleukine 2 (BIOTEST, Réf. 81.1020), et […] de polybrène (SIGMA, Réf. 36F.3686 P. 4515).
Du trichlorhydrate de BD 40 (sel ci-après appelé BD 40) est ajouté aux doses non toxiques de 3,2 jusqu'à 25 ng/ml en même temps que l'infection virale. La production du virus dans le surnageant est mesurée par l'activité réverse transcriptase après concentration des cellules infectées par centrifugation.
Les résultats obtenus figurent sur les courbes de la figure 3 qui donne l'activité de transcriptase inverse (RT en ordonnées) en fonction du temps pour des quantités données de BD 40.

[6] = biological target: T1, réverse transcriptase du virus HIV (Human immunodeficiency virus type 1 group M subtype B, UniProt P04585); assay: Clinical trial: reverse transcriptase activity in blood cells of treated AIDS patients; assay type: in vivo
T1 construct: mesures de l'activité réverse transcriptase (RT) dans les cellules sanguines; from tissue; host or cells: blood cells of AIDS patients treated with BD 40
Method: Lors d'un essai clinique chez 12 malades souffrant d'un SIDA avéré avec sarcome de Kaposi traités par des injections de trichlorhydrate de BD 40 en perfusion à des doses comprises entre 50 et 300 mg/m²/jour par cures de 3 jours consécutifs à intervalles de 3 semaines, des mesures de l'activité réverse transcriptase (RT) dans les cellules sanguines ont été pratiquées avant administration et aux 4e et 15e jours après le début de chaque cure.
La technique de mesure est la même que celle utilisée dans les tests II et III ci-dessus. Les résultats obtenus sont les suivants : - 8 cures sont évaluables à l'égard des critères adoptés, c'est-à-dire dans la mesure où l'activité réverse transcriptase a été mesurable pour le malade considéré et où sa valeur au jour 4 de la cure est encadrée par des valeurs connues au jour 15 de la cure précédente et au jour 15 de la cure considérée; - sur ces 8 cures évaluables, dans 7 cas la valeur au jour 4 est inférieure aux valeurs qui l'encadrent indiquant l'existence d'un inhibition nette de la réverse transcriptase; - sur ces 7 cas, dans 4 d'entre eux l'activité réverse transcriptase est ramenée à 0 (ou à une valeur négligeable, non significativement différente de 0); - sur ces 7 cas, si l'on normalise les valeurs obtenues en les exprimant en % de la valeur la plus élevée mesurée pour le malade considéré, les moyennes obtenues sont les suivantes : - RT au J15 de la cure précédente : 72,3 - RT au J4 de la […] : 9,7 - RT au J15 de la cure considérée : 62,4 l'inhibition est donc très évidente au 4e jour de la cure; - ces 7 cas sont obtenus aux doses suivantes (en mg/m2/administration) 2 fois à 50, 3 fois à 200, 1 fois à 250 et 1 fois à 300.

[7] = biological target: T2, transcriptase inverse du virus HIV 1 (Human immunodeficiency virus type 1 group M subtype B, UniProt P04585); assay: Reverse transcriptase assay (direct enzyme inhibition, synthetic primer, 3H-labelled substrate); assay type: biochemical; details: figure 1
T2 construct: transcriptase inverse du virus HIV 1
Text: Le trichlorhydrate de BD 40 (sel ci-après appelé "BD 40"), obtenu par réaction de la base BD 40 en phase aqueuse avec une solution aqueuse d'acide chlorhydrique, a été testé dans un premier temps en tant qu'inhibiteur direct sur l'activité enzymatique de la transcriptase inverse du virus HIV 1.
L'activité enzymatique a été testée en utilisant une amorce synthétique et un substrat radiomarqué au H³ "in vitro" en présence de différentes doses du BD 40. La quantité de matériel radiomarqué précipité, exprimée en coups par minute, est proportionnelle à l'activité de la transcriptase inverse.
Les résultats obtenus figurent sur le graphe de la figure 1, sur laquelle on a porté en ordonnées, la quantité de matériel radiomarqué en coups par minute (RT en cpm) et en abscisses les quantités de BD 40 testées.

[8] = mean of 7 cases, normalised values

## CCN(CC)CCCNc1nccc2c(C)c3[nH]c4ccncc4c3cc12 [BD 40]
[1]
  MCC: ≥ 100 nM
[2]; added to the culture only after infection (Fig. 2c)
  production virale de lymphocytes infectés: un pic de production virale qui reste d'un niveau plus faible que le pic obtenu en l'absence d'inhibiteur
[2]; present also during the culture after infection (Fig. 2b)
  production virale de lymphocytes infectés: Le même résultat
[2]; present during 1 h preincubation before infection (Fig. 2a)
  production virale de lymphocytes infectés: inhiber totalement la production virale
[3]
  toxicity of doses for the macrophage culture: non toxiques
[3]; 10 and 15 ng/ml, added at the time of infection
  retard d'apparition du virus: 2 jours
[3]; macrophages treated with BD 40, RT activity after coculture
  réplication du virus: inhibition partielle
[4]
  MCC: ≥ 100 nM
[5]
  toxicity of doses for the lymphocyte culture: non toxiques
[5]; 25 ng/ml to 6,25 ng/ml
  production virale des lymphocytes périphériques infectés: inhibition très importante
[5]; 3,12 ng/ml
  production virale des lymphocytes périphériques infectés: un pic de production virale apparait d'un niveau inférieur à celui obtenu en l'absence d'inhibiteur
[5]; highest non-toxic doses, up to day 42
  virus produit: absence totale de virus produit jusqu'au jour 42
[6]; 50, 200, 250 and 300 mg/m2/administration, patients
  clinical tolerance of the doses: cliniquement parfaitement tolérées
[6]; [8]
  RT au J4 de la cure précédente: 9,7 % de la valeur la plus élevée mesurée pour le malade considéré
  RT au J15 de la cure considérée: 62,4 % de la valeur la plus élevée mesurée pour le malade considéré
  RT au J15 de la cure précédente: 72,3 % de la valeur la plus élevée mesurée pour le malade considéré
[6]; out of 8 evaluable courses, patients with AIDS and Kaposi sarcoma, infusion 50-300 mg/m²/jour, 3-day courses every 3 weeks
  cas où la valeur au jour 4 est inférieure aux valeurs qui l'encadrent (inhibition nette de la réverse transcriptase): 7 cas
[6]; out of the 7 cases with inhibition
  cas où l'activité réverse transcriptase est ramenée à 0 (ou à une valeur négligeable): 4
[7]; BD 40 concentrations 1 mg/ml to 50 µg/ml
  activité de la transcriptase inverse du virus HIV: totalement inhibée
[7]; from BD 40 concentration 5 µg/ml
  activité de l'enzyme: du même niveau qu'en l'absence d'inhibiteur
